pIC50: −log10 of the molar value. Structures can show the parent of a compound that is named as a salt.
Tests used:
[1] = target: T1, full length G2019 human LRRK2 (Homo sapiens, UniProt Q5S007, R50H); experiment: Full length G2019 human LRRK2 inhibition mass spectrometry assay; assay type: biochemical; details: LRRKtide to phospho-LRRKtide conversion, RapidFire MS, 2 mM ATP
T1 construct: made in house; host or cells: HEK293 6E cells transduced with BacMam virus (virus generated in Sf9 cells)
How it was run: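 Inhibition taken as reduced LRRKtide phosphorylation, quantified by RapidFire-coupled triple-quadrupole MS as product/(product+substrate) peak area. Reaction: 2 mM ATP, 25 μM peptide, ~25 nM full-length G2019 Flag-LRRK2, Hepes pH 7.2 buffer, room temperature for 1 h. 11-point 1-in-4 dilutions from 100 μM; logistic fit gives IC50, reported as pIC50.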

[2] = target: T2, LRRK2 kinase in SH-SY5Y cells over-expressing recombinant full length LRRK2 (Homo sapiens, UniProt Q5S007); experiment: Recombinant cellular LRRK2 AlphaScreen assay (LRRK2 Ser935 phosphorylation); assay type: cell-based; details: 60 min
T2 construct: A BacMam virus expressing full length recombinant LRRK2 was purchased from Invitrogen; host or cells: SH-SY5Y human neuroblastoma cells transduced with BacMam LRRK2 virus
How it was run: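 Read-out is AlphaScreen of LRRK2 pSer935 over total LRRK2 in lysates of SH-SY5Y cells over-expressing full-length LRRK2 via BacMam (24 h transduction). Cells were exposed 60 min at 37 °C to an 11-point 1-in-4 dilution series starting at 10 uM; sigmoidal fit.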

T2 sequence (Q5S007 whole entry): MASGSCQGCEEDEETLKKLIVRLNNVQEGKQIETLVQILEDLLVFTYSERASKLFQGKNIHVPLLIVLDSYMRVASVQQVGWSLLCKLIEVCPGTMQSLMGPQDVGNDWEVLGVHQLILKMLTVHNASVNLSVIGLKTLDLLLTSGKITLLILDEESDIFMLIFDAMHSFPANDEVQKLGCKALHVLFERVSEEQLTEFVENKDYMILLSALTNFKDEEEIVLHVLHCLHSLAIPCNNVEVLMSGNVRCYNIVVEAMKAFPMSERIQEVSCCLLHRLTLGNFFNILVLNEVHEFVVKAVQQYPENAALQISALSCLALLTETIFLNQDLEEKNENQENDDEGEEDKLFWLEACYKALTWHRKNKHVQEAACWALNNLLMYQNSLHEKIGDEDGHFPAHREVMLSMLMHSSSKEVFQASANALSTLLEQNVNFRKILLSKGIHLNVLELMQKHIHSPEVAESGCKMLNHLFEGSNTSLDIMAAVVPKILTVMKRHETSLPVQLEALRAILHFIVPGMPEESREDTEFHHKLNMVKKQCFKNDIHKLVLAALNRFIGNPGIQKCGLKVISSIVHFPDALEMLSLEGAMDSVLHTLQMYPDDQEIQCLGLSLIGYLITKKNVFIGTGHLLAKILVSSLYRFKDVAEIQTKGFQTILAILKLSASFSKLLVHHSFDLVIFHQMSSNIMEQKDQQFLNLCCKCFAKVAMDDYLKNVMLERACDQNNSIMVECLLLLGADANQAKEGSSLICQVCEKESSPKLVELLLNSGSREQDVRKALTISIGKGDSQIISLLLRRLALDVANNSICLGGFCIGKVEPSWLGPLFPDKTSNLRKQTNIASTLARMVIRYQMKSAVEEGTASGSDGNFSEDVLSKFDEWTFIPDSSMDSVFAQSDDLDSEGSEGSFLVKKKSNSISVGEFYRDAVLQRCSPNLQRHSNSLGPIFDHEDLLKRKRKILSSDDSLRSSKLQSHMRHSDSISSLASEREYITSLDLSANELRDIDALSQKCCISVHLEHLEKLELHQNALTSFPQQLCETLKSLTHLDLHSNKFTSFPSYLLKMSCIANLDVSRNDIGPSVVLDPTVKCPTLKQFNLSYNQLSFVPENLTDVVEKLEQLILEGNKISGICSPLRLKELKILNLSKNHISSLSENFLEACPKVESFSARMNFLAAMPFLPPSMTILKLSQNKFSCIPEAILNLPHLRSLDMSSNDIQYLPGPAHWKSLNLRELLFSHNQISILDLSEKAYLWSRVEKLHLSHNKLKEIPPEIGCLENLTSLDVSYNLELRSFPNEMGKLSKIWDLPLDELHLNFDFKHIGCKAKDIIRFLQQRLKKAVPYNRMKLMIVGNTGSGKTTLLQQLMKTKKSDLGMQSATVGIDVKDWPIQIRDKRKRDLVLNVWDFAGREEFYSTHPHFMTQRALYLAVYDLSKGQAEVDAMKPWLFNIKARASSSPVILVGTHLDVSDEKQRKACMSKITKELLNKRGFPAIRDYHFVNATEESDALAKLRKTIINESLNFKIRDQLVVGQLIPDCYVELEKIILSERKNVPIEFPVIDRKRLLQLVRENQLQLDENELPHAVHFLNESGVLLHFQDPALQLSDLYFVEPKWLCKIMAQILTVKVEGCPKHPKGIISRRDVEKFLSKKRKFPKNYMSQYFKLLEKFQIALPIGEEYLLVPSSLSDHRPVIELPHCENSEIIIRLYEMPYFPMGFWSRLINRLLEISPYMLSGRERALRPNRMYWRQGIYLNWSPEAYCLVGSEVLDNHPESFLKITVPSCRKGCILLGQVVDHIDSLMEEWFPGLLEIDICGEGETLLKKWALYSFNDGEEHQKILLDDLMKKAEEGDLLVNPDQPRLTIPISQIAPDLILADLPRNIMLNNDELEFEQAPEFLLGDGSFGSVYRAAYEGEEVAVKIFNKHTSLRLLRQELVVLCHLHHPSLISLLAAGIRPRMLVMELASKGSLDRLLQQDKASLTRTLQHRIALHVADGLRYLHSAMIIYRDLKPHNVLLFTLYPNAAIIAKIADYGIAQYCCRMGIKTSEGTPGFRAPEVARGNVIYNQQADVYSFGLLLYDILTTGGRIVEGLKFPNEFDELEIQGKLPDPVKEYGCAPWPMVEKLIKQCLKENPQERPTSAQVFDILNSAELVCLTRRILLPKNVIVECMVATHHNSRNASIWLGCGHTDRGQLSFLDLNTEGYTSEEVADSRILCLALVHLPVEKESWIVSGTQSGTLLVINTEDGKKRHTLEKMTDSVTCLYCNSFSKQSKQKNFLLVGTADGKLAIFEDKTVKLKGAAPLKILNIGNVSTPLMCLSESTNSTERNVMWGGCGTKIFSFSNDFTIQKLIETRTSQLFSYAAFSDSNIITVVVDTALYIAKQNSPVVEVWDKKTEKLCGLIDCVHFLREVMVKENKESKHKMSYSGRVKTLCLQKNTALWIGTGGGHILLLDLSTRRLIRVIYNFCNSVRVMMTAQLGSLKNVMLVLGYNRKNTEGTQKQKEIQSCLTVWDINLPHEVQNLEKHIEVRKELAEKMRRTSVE
T1 sequence (Q5S007 with tags, fused parts or gaps R50H): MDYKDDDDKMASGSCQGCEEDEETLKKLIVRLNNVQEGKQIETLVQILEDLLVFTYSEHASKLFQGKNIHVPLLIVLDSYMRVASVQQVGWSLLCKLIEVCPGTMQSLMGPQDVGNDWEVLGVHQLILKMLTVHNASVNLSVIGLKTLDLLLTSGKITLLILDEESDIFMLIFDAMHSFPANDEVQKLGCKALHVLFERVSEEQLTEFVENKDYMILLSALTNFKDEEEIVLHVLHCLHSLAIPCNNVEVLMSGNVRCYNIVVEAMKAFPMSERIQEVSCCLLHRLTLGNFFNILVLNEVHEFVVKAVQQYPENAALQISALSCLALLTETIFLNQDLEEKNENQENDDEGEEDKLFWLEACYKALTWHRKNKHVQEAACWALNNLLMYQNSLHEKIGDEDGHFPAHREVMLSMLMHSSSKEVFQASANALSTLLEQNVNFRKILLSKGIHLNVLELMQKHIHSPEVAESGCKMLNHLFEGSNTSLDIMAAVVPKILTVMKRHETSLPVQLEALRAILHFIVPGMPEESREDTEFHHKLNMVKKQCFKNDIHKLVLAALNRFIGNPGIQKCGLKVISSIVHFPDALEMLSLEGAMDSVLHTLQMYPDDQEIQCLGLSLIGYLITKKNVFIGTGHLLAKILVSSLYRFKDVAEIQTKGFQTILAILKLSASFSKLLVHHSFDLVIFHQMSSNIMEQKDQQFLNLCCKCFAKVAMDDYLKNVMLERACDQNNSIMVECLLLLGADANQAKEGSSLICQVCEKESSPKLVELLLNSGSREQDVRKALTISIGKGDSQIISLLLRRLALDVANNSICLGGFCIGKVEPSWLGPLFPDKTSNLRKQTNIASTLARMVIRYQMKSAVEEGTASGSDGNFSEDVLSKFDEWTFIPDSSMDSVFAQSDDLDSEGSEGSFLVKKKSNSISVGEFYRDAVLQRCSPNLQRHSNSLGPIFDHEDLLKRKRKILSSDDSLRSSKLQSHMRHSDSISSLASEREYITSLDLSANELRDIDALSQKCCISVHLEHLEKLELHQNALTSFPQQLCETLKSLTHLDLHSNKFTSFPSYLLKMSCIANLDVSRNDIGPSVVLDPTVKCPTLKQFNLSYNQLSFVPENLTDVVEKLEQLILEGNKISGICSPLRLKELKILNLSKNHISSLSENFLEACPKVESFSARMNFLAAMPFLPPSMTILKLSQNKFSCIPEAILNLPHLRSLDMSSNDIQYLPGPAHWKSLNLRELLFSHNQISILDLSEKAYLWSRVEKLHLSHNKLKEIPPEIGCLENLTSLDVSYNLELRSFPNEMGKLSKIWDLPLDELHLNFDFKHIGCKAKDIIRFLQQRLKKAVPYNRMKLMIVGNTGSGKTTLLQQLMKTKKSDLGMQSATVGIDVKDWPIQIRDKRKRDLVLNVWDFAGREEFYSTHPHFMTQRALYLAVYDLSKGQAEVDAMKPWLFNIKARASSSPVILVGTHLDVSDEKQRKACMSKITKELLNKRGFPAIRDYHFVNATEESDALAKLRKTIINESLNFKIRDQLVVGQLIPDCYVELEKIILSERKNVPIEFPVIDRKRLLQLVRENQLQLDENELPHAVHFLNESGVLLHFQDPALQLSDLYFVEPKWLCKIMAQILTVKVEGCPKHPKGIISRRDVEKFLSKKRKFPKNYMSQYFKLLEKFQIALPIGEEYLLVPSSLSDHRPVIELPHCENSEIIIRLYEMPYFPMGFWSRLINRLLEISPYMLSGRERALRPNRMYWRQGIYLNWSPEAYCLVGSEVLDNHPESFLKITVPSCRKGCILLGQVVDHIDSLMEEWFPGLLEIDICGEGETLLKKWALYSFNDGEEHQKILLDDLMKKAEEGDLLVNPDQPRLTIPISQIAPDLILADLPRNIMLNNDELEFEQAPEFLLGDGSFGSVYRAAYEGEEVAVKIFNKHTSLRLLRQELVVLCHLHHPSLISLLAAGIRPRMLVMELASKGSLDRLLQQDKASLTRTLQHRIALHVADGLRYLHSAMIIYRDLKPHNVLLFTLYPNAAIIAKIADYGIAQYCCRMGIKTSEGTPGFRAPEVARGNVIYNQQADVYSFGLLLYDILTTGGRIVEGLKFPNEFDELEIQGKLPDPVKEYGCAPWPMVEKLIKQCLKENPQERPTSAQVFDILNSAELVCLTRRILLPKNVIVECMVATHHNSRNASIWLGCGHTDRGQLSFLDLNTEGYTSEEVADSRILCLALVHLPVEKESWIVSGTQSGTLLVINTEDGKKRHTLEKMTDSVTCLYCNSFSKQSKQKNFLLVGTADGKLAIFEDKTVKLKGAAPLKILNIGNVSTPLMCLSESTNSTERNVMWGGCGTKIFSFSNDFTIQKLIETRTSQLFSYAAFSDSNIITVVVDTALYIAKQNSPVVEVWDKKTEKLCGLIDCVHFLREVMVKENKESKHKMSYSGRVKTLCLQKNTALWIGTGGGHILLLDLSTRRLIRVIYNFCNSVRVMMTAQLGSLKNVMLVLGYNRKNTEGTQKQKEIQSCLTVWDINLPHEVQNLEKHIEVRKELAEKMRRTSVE

SMILES	pIC50 [1]	pIC50 [2]
Cc1c2c(nn1C1COCCC1(F)F)OCCCNc1nc(ncc1Cl)N2 (racemic) [E364, 14-Chloro-5-(4,4-difluorooxan-3-yl)-4-methyl-8-oxa-2,5,6,12,16,17-hexaazatricyclo[11.3.1.0^3,7]heptadeca-1(16),3,6,13(17),14-pentaene]	≥ 7.00	≥ 7.00
COC1CNc2nc(ncc2Cl)Nc2c(nn(C3CCOCC3)c2C)OC1 (single isomer, unassigned) [E3, 14-chloro-10-methoxy-4-methyl-5-(oxan-4-yl)-8-oxa-2,5,6,12,16,17-hexaazatricyclo [11.3.1.0^3,7]heptadeca-1(16),3,6,13(17),14-pentaene]	≥ 7.00	≥ 7.00
CCC1CCOc2nn(C3CCOCC3)c(C)c2Nc2ncc(Cl)c(n2)N1 (single isomer, unassigned) [E20, 14-chloro-11-ethyl-4-methyl-5-(oxan-4-yl)-8-oxa-2,5,6,12,16,17-hexaazatricyclo[11.3.1.0^3,7]heptadeca-1(16),3,6,13(17),14-pentaene]	≥ 7.00	≥ 7.00
Cc1c2c(nn1C1CCOCC1)OCCC(C)Nc1nc(ncc1Br)N2 (single isomer, unassigned) [E30, 14-bromo-4,11-dimethyl-5-(oxan-4-yl)-8-oxa-2,5,6,12,16,17-hexaaza tricyclo[11.3.1.0^3,7]heptadeca-1(16),3,6,13(17),14-pentaene]	≥ 7.00	≥ 7.00
Cc1c2c(nn1C1CCOCC1)OCC(C)C(C)Nc1nc(ncc1Cl)N2 (single isomer, unassigned) [E32, 14-chloro-4,10,11-trimethyl-5-(oxan-4-yl)-8-oxa-2,5,6,12,16,17-hexaazatricyclo [11.3.1.0^3,7]heptadeca-1(16),3,6,13(17),14-pentaene]	≥ 7.00	≥ 7.00
COCC1CCOc2nn(C3CCOCC3)c(C)c2Nc2ncc(Cl)c(n2)N1 (single isomer, unassigned) [E35, 14-chloro-11-(methoxymethyl)-4-methyl-5-(oxan-4-yl)-8-oxa-2,5,6, 12,16,17-hexaazatricyclo-[11.3.1.0^3,7]heptadeca-1(16),3,6,13(17),14-pentaene]	≥ 7.00	≥ 7.00
Cc1c2c(nn1C1CCC(N3C[C@H]4C[C@@H]3CO4)CC1)OCCCNc1nc(ncc1Cl)N2 (single isomer, unassigned) [E48]	≥ 7.00	≥ 7.00
Cc1c2c(nn1C1CCOCC1)OCCC(CF)Nc1nc(ncc1Cl)N2 (single isomer, unassigned) [E54, 14-chloro-11-(fluoromethyl)-4-methyl-5-(oxan-4-yl)-8-oxa-2,5,6,12, 16,17-hexaazatricyclo[11.3.1.0^3,7]heptadeca-1(16),3,6,13(17),14-pentaene]	≥ 7.00	≥ 7.00
Cc1c2c(nn1C1CCC(N3C[C@H]4C[C@@H]3CO4)CC1)OCCC(C)Nc1nc(ncc1Cl)N2 (single isomer, unassigned) [E57]	≥ 7.00	≥ 7.00
Cc1c2c(nn1C1CCN(C3COC3)CC1F)OCCCNc1nc(ncc1Cl)N2 (single isomer, unassigned) [E61, trans-14-chloro-5-[3-fluoro-1-(oxetan-3-yl)piperidin-4-yl]-4-methyl-8-oxa-2,5,6,12,16,17-hexaazatricyclo[11.3.1.0^3,7]heptadeca-1(16),3,6,13(17),14-pentaene]	≥ 7.00	≥ 7.00
Cc1c2c(nn1C1CCOCC1)OCC(F)C(C)Nc1nc(ncc1Cl)N2 (single isomer, unassigned) [E64, 14-Chloro-10-fluoro-4,11-dimethyl-5-(oxan-4-yl)-8-oxa-2,5,6,12, 16,17-hexaazatricyclo[11.3.1.0^3,7]heptadeca-1(16),3,6,13(17),14-pentaene]	≥ 7.00	≥ 7.00
Cc1c2c(nn1C1CCCN(C3COC3)C1)OCC[C@@H](C)Nc1nc(ncc1Cl)N2 (single isomer, unassigned) [E67]	≥ 7.00	≥ 7.00
COC1CNc2nc(ncc2Cl)Nc2c(nn(C3CCOCC3F)c2C)OC1 (single isomer, unassigned) [E70, 14-Chloro-5-(3-fluorooxan-4-yl)-10-methoxy-4-methyl-8-oxa-2,5,6,12,16,17-hexaaza tricyclo[11.3.1.0^3,7]heptadeca-1(16),3,6,13(17),14-pentaene]	≥ 7.00	≥ 7.00
Cc1c2c(nn1C1CCOCC1)OCCC(C(F)F)Nc1nc(ncc1Cl)N2 (single isomer, unassigned) [E88, 14-chloro-11-(difluoromethyl)-4-methyl-5-(oxan-4-yl)-8-oxa-2,5,6, 12,16,17-hexaazatricyclo[11.3.1.0^3,7]heptadeca-1(16),3,6,13(17),14-pentaene]	≥ 7.00	≥ 7.00
Cc1c2c(nn1C1CCC(O)CC1)OCCCNc1nc(ncc1Cl)N2 (single isomer, unassigned) [E90, 4-{14-chloro-4-methyl-8-oxa-2,5,6,12,16,17-hexaazatricyclo[11.3.1.0^3,7]heptadeca-1(16),3,6,13(17),14-pentaen-5-yl}cyclohexan-1-ol]	≥ 7.00	≥ 7.00
Cc1c2c(nn1C1CCC(N3C[C@@H]4C[C@H]3CO4)CC1)OCCC(C)Nc1nc(ncc1Cl)N2 (single isomer, unassigned) [E104]	≥ 7.00	≥ 7.00
N#Cc1cnc2nc1NCCCOc1nn(C3CCOCC3(F)F)c(Cl)c1N2 (centres unmarked) [E438, 4-Chloro-5-(3,3-difluorooxan-4-yl)-8-oxa-2,5,6,12,16,17-hexaazatricyclo[11.3.1.0^3,7]heptadeca-1(16),3,6,13(17),14-pentaene-14-carbonitrile]		≥ 7.00
C[C@@H]1CCOc2nn(C3CN(C4COCCC4(F)F)C3)c(Cl)c2Nc2ncc(Cl)c(n2)N1 (stereo partly drawn) [E440, (11R)-4,14-Dichloro-5-[1-(4,4-difluorooxan-3-yl)azetidin-3-yl]-11-methyl-8-oxa-2,5,6,12,16,17-hexaazatricyclo[11.3.1.0^3,7]heptadeca-1(16),3,6,13(17),14-pentaene, TFA salt]		≥ 7.00
Cc1c2c(nn1C1CCOCC1)OCCCNc1nc(ncc1C(C)(C)C)N2 [E441, 14-tert-Butyl-4-methyl-5-(oxan-4-yl)-8-oxa-2,5,6,12,16,17-hexaazatricyclo[11.3.1.0^3,7]heptadeca-1(16),3,6,13(17),14-pentaene]		< 5.00
Cc1c2c(nn1C1(C#N)CCOCC1)OCCCNc1nc(ncc1Cl)N2 [E450, 4-{14-chloro-4-methyl-8-oxa-2,5,6,12,16,17-hexaazatricyclo[11.3.1.0^3,7]heptadeca-1(17),3,6,13,15-pentaen-5-yl}oxane-4-carbonitrile]		≥ 7.00
Cc1c2c(nn1C(C)(C)CO)OCCCNc1nc(ncc1Cl)N2 [E451, 2-{14-Chloro-4-methyl-8-oxa-2,5,6,12,16,17-hexaazatricyclo[11. 3.1.0^3,7]heptadecal 1(16),3,6,13(17),14-pentaen-5-yl}-2-methylpropan-1-ol]		≥ 7.00
Cc1c2c(nn1C(C)(C)CO)OCC[C@@H](C)Nc1nc(ncc1Cl)N2 [E452, 2-[(11R)-14-Chloro-4,11-dimethyl-8-oxa-2,5,6,12,16,17-hexaazatricyclo[11.3.1.0^3,7]heptadeca-1(16),3,6,13(17),14-pentaen-5-yl]-2-methylpropan-1-ol]		≥ 7.00

— US20200392158A1, “INHIBITORS OF LEUCINE RICH REPEAT KINASE 2” (GLAXOSMITHKLINE INTELLECTUAL PROPERTY DEVELOPMENT LIMITED, priority 2017, published 2020)
